14 compounds from ChEMBL document CHEMBL1159176, “Regioselective synthesis of 3-aryl substituted pyrrolidines via palladium catalyzed arylation: pharmacological evaluation for central dopaminergic and serotonergic activity” (Bioorg Med Chem Lett, 1997) can be followed below.

Assay [1] has as its system Rattus norvegicus. The assay is described as follows: Accumulation of Dihydroxyphenylalanine in cortical brain region in rat after injecting drug compound 65 min and NSD 1015 at a dose of 100 mg/kg administered subcutaneously, 30 min before death, tested in vivo. Format: functional. The note with it: route subcutaneous.
Assay [2] addresses T1, Serotonin 2 (5-HT2) receptor (Rattus norvegicus, UniProt P30994+P08909+P14842). Nature of the assay: Inhibitory concentration against [3H]ketanserin binding to 5-hydroxytryptamine 2 receptor expressed in CHO-K1 cells. The format is cell-based.
In assay [3] the test system is Rattus norvegicus. Nature of the assay: Accumulation of 5-Hydroxytryptophan in striatal region in rat after injecting drug compound 65 min and NSD 1015 at a dose of 100 mg/kg administered subcutaneously, 30 min before death, tested in vivo. Format: functional. To be noted: route subcutaneous.
Assay [4] deals with Rattus norvegicus. Nature of the assay: Accumulation of 5-Hydroxytryptophan in cortical brain region in rat after injecting drug compound 65 min and NSD 1015 at a dose of 100 mg/kg administered subcutaneously, 30 min before death, tested in vivo. Format: functional. To be noted: route subcutaneous.
The subject of assay [5] is Rattus norvegicus. Nature of the assay: Accumulation of Dihydroxyphenylalanine in limbic region in rat after injecting drug compound 65 min and NSD 1015 at a dose of 100 mg/kg administered subcutaneously, 30 min before death, tested in vivo. The format is functional, Limbic system. The note with it: route subcutaneous.
Assay [6] has as its target T2, D(2) dopamine receptor (Rattus norvegicus, UniProt P61169). The assay is described as follows: Inhibitory concentration against [3H]U-86170 binding to Dopamine receptor D2 expressed in CHO-K1 cells. The format is cell-based.
Assay [7] concerns the target T3, D(3) dopamine receptor (Rattus norvegicus, UniProt P19020). The assay is described as follows: Inhibitory concentration against [3H]spiperone binding to Dopamine receptor D3 expressed in CHO-K1 cells. Format: cell-based.
Assay [8] deals with T4, 5-hydroxytryptamine receptor 1A (Rattus norvegicus, UniProt P19327).
T4 sequence (P19327 whole entry): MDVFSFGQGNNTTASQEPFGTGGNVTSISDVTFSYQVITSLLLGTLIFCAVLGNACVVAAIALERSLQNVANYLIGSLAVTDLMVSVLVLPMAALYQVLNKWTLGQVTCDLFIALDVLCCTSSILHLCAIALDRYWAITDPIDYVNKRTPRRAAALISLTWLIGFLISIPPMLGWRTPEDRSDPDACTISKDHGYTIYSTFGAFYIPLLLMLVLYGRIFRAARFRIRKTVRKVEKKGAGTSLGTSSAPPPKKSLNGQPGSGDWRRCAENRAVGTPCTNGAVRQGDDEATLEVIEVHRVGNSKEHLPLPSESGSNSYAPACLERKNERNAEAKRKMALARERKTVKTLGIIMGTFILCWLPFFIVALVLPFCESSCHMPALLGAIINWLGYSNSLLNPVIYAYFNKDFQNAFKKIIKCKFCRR
The assay is described as follows: Inhibitory concentration against [3H]8-OH-DPAT binding to 5-hydroxytryptamine 1A receptor expressed in CHO-K1 cells. The format is cell-based.

The subject of assay [9] is Rattus norvegicus. Nature of the assay: Accumulation of Dihydroxyphenylalanine in striatal region in rat after injecting drug compound 65 min and NSD 1015 at a dose of 100 mg/kg administered subcutaneously, 30 min before death, tested in vivo. The format is functional. The note with it: route subcutaneous.
Assay [10] deals with Rattus norvegicus. Nature of the assay: Locomotor activity, measured for 30 min after injection of drug, administered subcutaneously at 100 umol/kg. Format: functional.
Assay [11] relates to Rattus norvegicus. Nature of the assay: Accumulation of 5-Hydroxytryptophan in limbic region in rat after injecting drug compound 65 min and NSD 1015 at a dose of 100 mg/kg administered subcutaneously, 30 min before death, tested in vivo. The format is functional, Limbic system. The note with it: route subcutaneous.
For assay [12], the target named is T4, 5-hydroxytryptamine receptor 1A. The assay is described as follows: Binding affinity against [3H]8-OH-DPAT binding to 5-hydroxytryptamine 1A receptor expressed in CHO-K1 cells. The format is cell-based.
Assay [13] deals with T3, D(3) dopamine receptor. Nature of the assay: Binding affinity against [3H]spiperone binding to Dopamine receptor D3 expressed in CHO-K1 cells. Format: cell-based.
The target in assay [14] is T2, D(2) dopamine receptor. Nature of the assay: Binding affinity against [3H]U-86170 binding to Dopamine receptor D2 expressed in CHO-K1 cells. The format is cell-based.
Assay [15] concerns the target T1, Serotonin 2 (5-HT2) receptor. The assay is described as follows: Binding affinity against [3H]ketanserin binding to 5-hydroxytryptamine 2 receptor expressed in CHO-K1 cells. The format is cell-based.
Assay [16] has as its system Rattus norvegicus. Nature of the assay: Accumulation of Dihydroxyphenylalanine in striatal region in rat after injecting drug compound 65 min and NSD 1015 at a dose of 0.07 mg/kg administered subcutaneously, 30 min before death, tested in vivo. Format: functional. The note with it: route subcutaneous.
Assay [17] relates to Rattus norvegicus. The assay is described as follows: Accumulation of Dihydroxyphenylalanine in limbic region in rat after injecting drug compound 65 min and NSD 1015 at a dose of 0.07 mg/kg administered subcutaneously, 30 min before death, tested in vivo. The note with it: route subcutaneous. The format is functional, Limbic system.

SMILES strings stand for the structures.

T2 sequence (P61169 whole entry): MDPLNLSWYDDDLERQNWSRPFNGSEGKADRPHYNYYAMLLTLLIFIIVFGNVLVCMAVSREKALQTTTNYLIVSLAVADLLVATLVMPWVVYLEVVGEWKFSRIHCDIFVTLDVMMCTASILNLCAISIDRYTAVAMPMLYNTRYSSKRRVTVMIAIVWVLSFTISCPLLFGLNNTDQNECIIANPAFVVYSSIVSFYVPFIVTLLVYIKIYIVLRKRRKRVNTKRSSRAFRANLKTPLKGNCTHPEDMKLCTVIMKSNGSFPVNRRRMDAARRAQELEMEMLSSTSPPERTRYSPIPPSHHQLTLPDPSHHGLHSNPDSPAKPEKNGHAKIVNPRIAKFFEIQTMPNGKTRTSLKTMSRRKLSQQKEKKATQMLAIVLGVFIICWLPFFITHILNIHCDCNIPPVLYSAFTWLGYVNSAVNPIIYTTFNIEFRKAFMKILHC
T3 sequence (P19020 whole entry): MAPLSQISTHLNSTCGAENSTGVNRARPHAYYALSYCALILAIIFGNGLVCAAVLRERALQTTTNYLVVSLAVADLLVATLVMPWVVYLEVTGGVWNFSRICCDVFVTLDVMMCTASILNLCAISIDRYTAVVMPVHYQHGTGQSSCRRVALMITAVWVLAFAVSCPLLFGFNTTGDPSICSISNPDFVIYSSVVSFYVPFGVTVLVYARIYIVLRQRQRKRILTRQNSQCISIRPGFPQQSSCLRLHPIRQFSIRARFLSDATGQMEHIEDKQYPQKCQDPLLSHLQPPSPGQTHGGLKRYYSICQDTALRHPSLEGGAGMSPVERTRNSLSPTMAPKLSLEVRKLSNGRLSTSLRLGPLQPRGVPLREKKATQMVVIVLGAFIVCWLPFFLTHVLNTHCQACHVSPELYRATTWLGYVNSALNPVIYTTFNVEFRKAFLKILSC

One may read the IC50 as the concentration that inhibits the measured activity by half. A high value points to lower potency. In the case of `CN1CCC(C2=CN=CCC2)C1` (configuration not stated), the Control in the assay with Rattus norvegicus [1] is 126%; in the assay with Rattus norvegicus [3] it was 112%; with Rattus norvegicus [4], 79%; in the assay with Rattus norvegicus [5], 112%; with Rattus norvegicus [9] it was 112%; in the assay on Rattus norvegicus [10] it was 47%. In the assay on Rattus norvegicus [11], the Control was determined as 72%. The IC50 (in [2]; on D(2) dopamine receptor [6]; at D(3) dopamine receptor [7]; in [8]) was over 1000 nM in each case.

By Ki is commonly meant the dissociation constant of the complex between target and ligand, obtained from inhibition or displacement. High values mean weaker binding, low ones tighter binding. As to `CCCN1CCC(c2cccc(O)c2)C1` (configuration not stated), the Control in the assay on Rattus norvegicus [1] is on record as 88%; with Rattus norvegicus [3], 68%; in the assay with Rattus norvegicus [4], 79%; in the assay with Rattus norvegicus [5], 113%; with Rattus norvegicus [9], 153%; with Rattus norvegicus [10], 20%. The Control in the assay on Rattus norvegicus [11] was 74%. The IC50 in assay [2] is recorded as over 1000 nM. Moreover, the Ki in assay [12] turned out to be 201 nM; at D(3) dopamine receptor [13], 52 nM; at D(2) dopamine receptor [14], 68 nM.

As to `CS(=O)(=O)c1cccc(C2CCNC2)c1` (configuration not stated), the Control was 104% in the assay on Rattus norvegicus [1]; 92% in the assay on Rattus norvegicus [3]; 98% with Rattus norvegicus [4]; 89% in the assay on Rattus norvegicus [5]; 91% with Rattus norvegicus [9]; 71% in the assay with Rattus norvegicus [10]. Further, the Control in the assay with Rattus norvegicus [11] was 96%. The half-maximal inhibitory concentration (IC50) (in assay [2]; on D(2) dopamine receptor [6]; on D(3) dopamine receptor [7]; in assay [8]) was over 1000 nM in each case.

On to `CCCN1CCC(c2ccccc2)C1` (configuration not stated), for which the Control in the assay on Rattus norvegicus [1] is reported as 130%; in the assay on Rattus norvegicus [3] it was 81%; in the assay with Rattus norvegicus [4] it was 83%; with Rattus norvegicus [5], 96%; in the assay on Rattus norvegicus [9], 66%; with Rattus norvegicus [10], 115%. The compound further had a Control in the assay on Rattus norvegicus [11] of 92%. In addition, the IC50 in assay [2] was over 1000 nM. Moreover, the inhibition constant Ki was 453 nM in assay [12], over 2500 nM on D(3) dopamine receptor [13] and 625 nM on D(2) dopamine receptor [14].

As to `CCCN1CCC(c2cccc3ccccc23)C1` (configuration not stated), the Control was 115% in the assay with Rattus norvegicus [1]; 54% in the assay on Rattus norvegicus [3]; 57% in the assay with Rattus norvegicus [4]; 118% in the assay on Rattus norvegicus [5]; 177% in the assay with Rattus norvegicus [9]; 80% in the assay on Rattus norvegicus [10]. In the assay on Rattus norvegicus [11], the Control came to 53%. In addition, the values for the inhibitory constant (Ki) (in [12]; on D(2) dopamine receptor [14]; in assay [15]) were 73 nM, 71 nM and 113 nM, respectively. At D(3) dopamine receptor [7], this compound gave an IC50 of over 1000 nM.

As for `CCCN1CCC[C@@H](c2cccc(S(C)(=O)=O)c2)C1`, the Control is recorded as 165% with Rattus norvegicus [1]; 85% in the assay on Rattus norvegicus [3]; 78% with Rattus norvegicus [4]; 228% in the assay on Rattus norvegicus [5]; 317% with Rattus norvegicus [9]; 135% in the assay on Rattus norvegicus [10]. The Control in the assay with Rattus norvegicus [11] is reported as 83%.

In the case of `CCCN1CCC(c2cccc(C(F)(F)F)c2)C1` (configuration not stated), the Control with Rattus norvegicus [1] amounted to 131%; with Rattus norvegicus [3] it was 78%; with Rattus norvegicus [4], 87%; with Rattus norvegicus [5], 205%; with Rattus norvegicus [9], 297%; in the assay on Rattus norvegicus [10], 89%. For the same compound, the Control with Rattus norvegicus [11] is 97%. For the same compound, the inhibition constant (Ki) in [12] worked out at 351 nM; at D(3) dopamine receptor [13], 35 nM; at D(2) dopamine receptor [14] it was 151 nM; in [15] it was 569 nM.

As for `c1ccc2c(C3CCNC3)cccc2c1` (configuration not stated), the Control was 104% with Rattus norvegicus [1]; 93% in the assay with Rattus norvegicus [3]; 86% with Rattus norvegicus [4]; 92% with Rattus norvegicus [5]; 82% in the assay with Rattus norvegicus [9]; 129% in the assay with Rattus norvegicus [10]. The same compound gave a Control with Rattus norvegicus [11] of 94%. The values for the Ki (in assay [12]; on D(2) dopamine receptor [14]; in [15]) were 95 nM, 264 nM and 40 nM, respectively. Moreover, the 50% inhibitory concentration (IC50) on D(3) dopamine receptor [7] is over 1000 nM.

Consider `CCCN1CCC(C2CCCCC2)C1` (configuration not stated), for which the Control in the assay with Rattus norvegicus [1] came to 119%; in the assay with Rattus norvegicus [3] it was 103%; in the assay with Rattus norvegicus [4] it was 88%; with Rattus norvegicus [5], 116%; in the assay with Rattus norvegicus [9], 95%; in the assay with Rattus norvegicus [10], 87%. The Control in the assay with Rattus norvegicus [11] is reported as 102%. The 50% inhibitory concentration (IC50) (in assay [2]; at D(2) dopamine receptor [6]; at D(3) dopamine receptor [7]; in assay [8]) was over 1000 nM in each case.

For the compound `O=C(CCCN1CCC(O)(c2ccc(Cl)cc2)CC1)c1ccc(F)cc1` [HALOPERIDOL], the figures for the Control in the assay with Rattus norvegicus [16], in the assay with Rattus norvegicus [17] and in the assay on Rattus norvegicus [10] were 310%, 241% and 2%, respectively.

For the compound `CCCN1CCC(c2cccc(OS(=O)(=O)C(F)(F)F)c2)C1` (configuration not stated), the Control with Rattus norvegicus [1] came to 114%; in the assay on Rattus norvegicus [3], 86%; in the assay with Rattus norvegicus [4], 98%; with Rattus norvegicus [5], 211%; in the assay on Rattus norvegicus [9], 290%; in the assay with Rattus norvegicus [10], 93%. Also, the Control in the assay on Rattus norvegicus [11] came out at 85%. Also, in assay [2], the 50% inhibitory concentration (IC50) is over 1000 nM. The values for the Ki (in assay [12]; at D(3) dopamine receptor [13]; at D(2) dopamine receptor [14]) were 652 nM, 62 nM and 162 nM, respectively.

Regarding `FC(F)(F)c1cccc(C2CCNC2)c1` (configuration not stated), the Control with Rattus norvegicus [1] stood at 72%; in the assay with Rattus norvegicus [3], 82%; in the assay on Rattus norvegicus [4] it was 70%; in the assay with Rattus norvegicus [5], 113%; with Rattus norvegicus [9] it was 163%; in the assay on Rattus norvegicus [10], 74%. The compound also gave a Control in the assay with Rattus norvegicus [11] of 70%. For the same compound, the Ki stood at 174 nM in [12], 633 nM at D(3) dopamine receptor [13], 100 nM at D(2) dopamine receptor [14] and 227 nM in assay [15].

On to `CCCN1CCC(c2cccnc2)C1` (configuration not stated), for which the Control with Rattus norvegicus [1] came out at 132%; with Rattus norvegicus [3] it was 104%; in the assay on Rattus norvegicus [4], 94%; in the assay on Rattus norvegicus [5] it was 111%; in the assay on Rattus norvegicus [9] it was 108%; in the assay on Rattus norvegicus [10], 15%. Also, the Control with Rattus norvegicus [11] turned out to be 90%. The IC50 (in assay [2]; on D(2) dopamine receptor [6]; on D(3) dopamine receptor [7]; in assay [8]) was over 1000 nM each time.

As to `CCCN1CCC(c2cccc(S(C)(=O)=O)c2)C1` (configuration not stated), the Control with Rattus norvegicus [1] came out at 143%; with Rattus norvegicus [3], 78%; in the assay with Rattus norvegicus [4], 92%; with Rattus norvegicus [5] it was 207%; in the assay on Rattus norvegicus [9], 256%; in the assay on Rattus norvegicus [10], 126%. Also, the Control in the assay with Rattus norvegicus [11] came out at 97%. Also, the IC50 (in assay [2]; at D(2) dopamine receptor [6]; at D(3) dopamine receptor [7]) was over 1000 nM in each case. The compound also returned an inhibitory constant (Ki) in assay [12] of 807 nM.
